According to ChEMBL document CHEMBL1201862, “PubChem BioAssay data set” (2004):
Active and inactive are the calls of the source.

Experiments:
[1] = A549 cell cytotoxicity, dose response, cytotoxicity control, plate reader, cherry-pick, antagonist series (AID 743412); assay type: functional, cell-based
[2] = LGR2 antagonists, dose response, cell-based, HEK293, CRE-luciferase reporter, cherry pick, set 2 (AID 743343); assay type: functional;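 also: transfected cells were stimulated with diluted bursicon conditioned medium after compound addition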
[3] = MC4R antagonists, dose response, counter-screen for LGR2 antagonist project, cell-based, plate reader, cherry pick (AID 743444); assay type: functional;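 also: transfected HEK 293 cells stimulated with alpha-MSH peptide; potency of inhibitors of the alpha-MSH evoked signal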
[4] = biological target: T1, Nuclear receptor subfamily 0 group B member 1 (Homo sapiens, UniProt P51843); assay: Luminescence-based cell-based high throughput dose response assay for inhibitors of the orphan nuclear receptor subfamily 0, group B, member 1 (DAX1; NR0B1). [Related pubchem assays (depositor defined):AID504766, AID504790]; assay type: functional
T1 sequence (P51843 whole entry): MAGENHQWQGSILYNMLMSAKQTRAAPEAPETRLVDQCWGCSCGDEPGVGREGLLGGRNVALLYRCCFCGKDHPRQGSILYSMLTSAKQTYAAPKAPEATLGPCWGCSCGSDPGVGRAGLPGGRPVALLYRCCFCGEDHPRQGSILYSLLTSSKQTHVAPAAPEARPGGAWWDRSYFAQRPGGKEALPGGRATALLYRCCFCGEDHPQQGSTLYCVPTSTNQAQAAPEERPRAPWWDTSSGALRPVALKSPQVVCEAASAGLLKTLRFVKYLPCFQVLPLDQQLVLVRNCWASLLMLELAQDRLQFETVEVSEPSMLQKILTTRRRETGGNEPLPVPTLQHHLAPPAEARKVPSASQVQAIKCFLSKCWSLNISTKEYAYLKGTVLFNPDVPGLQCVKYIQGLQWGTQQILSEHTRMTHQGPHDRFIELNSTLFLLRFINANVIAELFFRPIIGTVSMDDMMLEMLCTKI

[5] = tested on: HEK293; assay: cells; assay type: functional, cell-based; details: Homo sapiens
[6] = biological target: T2, Endoribonuclease toxin MazF (Escherichia coli K-12, UniProt P0AE70); assay: MazF toxin RNase activators, dose response, biochemical, fluorescence, single-stranded RNA substrate, uHTS hits (AID 588481); assay type: functional
T2 sequence (P0AE70 whole entry): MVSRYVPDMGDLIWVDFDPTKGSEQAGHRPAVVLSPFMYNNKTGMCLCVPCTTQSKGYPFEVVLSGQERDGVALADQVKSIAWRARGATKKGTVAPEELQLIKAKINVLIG

[7] = biological target: T3, Zinc finger protein mex-5 (Caenorhabditis elegans, UniProt Q9XUB2); assay: MEX-5/TCR-2 RNA interaction inhibitors, dose response, biochemical, C. elegans, fluorescence polarization (AID 1960)
T3 sequence (Q9XUB2 whole entry): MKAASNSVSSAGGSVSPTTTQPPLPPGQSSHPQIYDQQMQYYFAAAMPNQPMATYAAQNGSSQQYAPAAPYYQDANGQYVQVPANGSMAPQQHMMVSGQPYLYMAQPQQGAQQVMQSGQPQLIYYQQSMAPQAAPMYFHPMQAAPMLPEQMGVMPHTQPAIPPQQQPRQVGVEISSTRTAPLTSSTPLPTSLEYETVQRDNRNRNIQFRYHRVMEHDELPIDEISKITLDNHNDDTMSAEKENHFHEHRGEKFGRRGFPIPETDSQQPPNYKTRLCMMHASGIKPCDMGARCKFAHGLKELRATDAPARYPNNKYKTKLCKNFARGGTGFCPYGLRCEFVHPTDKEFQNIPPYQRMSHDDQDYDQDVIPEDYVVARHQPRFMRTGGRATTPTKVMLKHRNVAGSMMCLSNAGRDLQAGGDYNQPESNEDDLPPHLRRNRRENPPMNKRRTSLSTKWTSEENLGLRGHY

[8] = biological target: T4, Corticotropin-releasing factor receptor 2/Corticotropin-releasing factor-binding protein (Homo sapiens, UniProt P24387+Q13324); assay: activators of CRF receptor 2 with binding protein – uHTS hits, confirmation (AID 602473); assay type: functional; details: read-out: EC50_Mean
T4 sequence (Q13324 whole entry): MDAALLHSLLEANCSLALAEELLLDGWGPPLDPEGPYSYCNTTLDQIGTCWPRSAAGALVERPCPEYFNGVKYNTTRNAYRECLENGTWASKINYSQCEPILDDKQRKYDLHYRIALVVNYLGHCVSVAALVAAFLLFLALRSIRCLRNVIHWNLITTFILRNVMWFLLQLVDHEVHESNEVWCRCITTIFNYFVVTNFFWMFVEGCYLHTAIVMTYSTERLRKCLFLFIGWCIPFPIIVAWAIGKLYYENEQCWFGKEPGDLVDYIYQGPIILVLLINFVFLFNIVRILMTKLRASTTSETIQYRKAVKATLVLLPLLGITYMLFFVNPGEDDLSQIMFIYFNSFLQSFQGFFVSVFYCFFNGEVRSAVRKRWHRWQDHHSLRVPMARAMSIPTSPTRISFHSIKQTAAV
T4 sequence (P24387 whole entry): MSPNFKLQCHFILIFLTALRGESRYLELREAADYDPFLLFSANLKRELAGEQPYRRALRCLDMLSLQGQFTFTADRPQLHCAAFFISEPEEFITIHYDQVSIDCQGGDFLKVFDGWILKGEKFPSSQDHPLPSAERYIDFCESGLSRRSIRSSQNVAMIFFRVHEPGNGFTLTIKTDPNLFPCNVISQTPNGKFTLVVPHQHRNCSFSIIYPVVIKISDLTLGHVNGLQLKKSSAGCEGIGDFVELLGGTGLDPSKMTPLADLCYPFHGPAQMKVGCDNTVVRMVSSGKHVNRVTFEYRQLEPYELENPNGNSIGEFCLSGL

[9] = biological target: T2, Endoribonuclease toxin MazF; assay: fluorescent RNA oligo signal without MazF, dose response, counter-screen for MazEF activator project, biochemical, fluorescence, single-stranded RNase substrate (AID 588502); assay type: functional
[10] = biological target: T5, RNA-binding protein pos-1 (Caenorhabditis elegans, UniProt G5EF15); assay: inhibitors of POS-1/mex-3 RNA binding, dose response, biochemical, fluorescence polarization (AID 1964);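 also: purified POS-1 fused to maltose binding protein made in E. coli; potency of compounds blocking POS-1 binding to fluorescent RNA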
T5 sequence (G5EF15 whole entry): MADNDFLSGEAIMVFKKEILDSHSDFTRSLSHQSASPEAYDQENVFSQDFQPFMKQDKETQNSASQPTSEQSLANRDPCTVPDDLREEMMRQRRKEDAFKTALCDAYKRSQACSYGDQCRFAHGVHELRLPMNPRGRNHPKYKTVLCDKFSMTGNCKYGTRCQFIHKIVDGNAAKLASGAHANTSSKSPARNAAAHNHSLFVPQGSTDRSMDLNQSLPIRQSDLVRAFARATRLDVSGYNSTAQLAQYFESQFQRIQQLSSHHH

[11] = biological target: Beta-galactosidase (Escherichia coli, UniProt Q8VNN2); assay: PubChem AID 485352; assay type: functional
[12] = biological target: T6, Type-1 angiotensin II receptor (Homo sapiens, UniProt P30556); assay: AT1 receptor antagonists, dose response, selectivity assay for APJ receptor antagonist project, cell-based, uHTS hits (AID 463214); assay type: functional;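 also: antagonist potency against angiotensin II stimulated AT1 response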
T6 sequence (P30556 whole entry): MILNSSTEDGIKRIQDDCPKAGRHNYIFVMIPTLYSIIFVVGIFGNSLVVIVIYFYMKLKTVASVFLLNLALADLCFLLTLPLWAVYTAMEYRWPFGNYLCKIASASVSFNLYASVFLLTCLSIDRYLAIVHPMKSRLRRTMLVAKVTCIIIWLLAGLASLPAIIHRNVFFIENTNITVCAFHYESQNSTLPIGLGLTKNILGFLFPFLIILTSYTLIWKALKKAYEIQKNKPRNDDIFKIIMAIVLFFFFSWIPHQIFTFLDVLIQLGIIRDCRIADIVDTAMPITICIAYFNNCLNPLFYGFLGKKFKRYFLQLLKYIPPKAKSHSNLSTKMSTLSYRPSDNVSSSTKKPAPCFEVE

[13] = biological target: T7, Fatty acid synthase (Homo sapiens, UniProt P49327); assay: FAS thioesterase domain inhibitors, dose response, biochemical, kinetic fluorescence intensity (AID 624326); assay type: functional;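 also: rate of fluorescence rise from hydrolysis of a fluorogenic O-methyl fluorescein ester substrate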
[14] = biological target: Glucose-6-phosphate 1-dehydrogenase (Homo sapiens, UniProt P11413); assay: human G6PD enzyme inhibitors, dose response, selectivity assay for P. falciparum G6PD inhibitor project, biochemical, fluorescence (AID 504792); assay type: functional
[15] = biological target: T8, Mannose-6-phosphate isomerase (Homo sapiens, UniProt P34949); assay: inhibitors of human PMI, primary screen, biochemical, fluorescence intensity, coupled assay (AID 1209)
T8 sequence (P34949 whole entry): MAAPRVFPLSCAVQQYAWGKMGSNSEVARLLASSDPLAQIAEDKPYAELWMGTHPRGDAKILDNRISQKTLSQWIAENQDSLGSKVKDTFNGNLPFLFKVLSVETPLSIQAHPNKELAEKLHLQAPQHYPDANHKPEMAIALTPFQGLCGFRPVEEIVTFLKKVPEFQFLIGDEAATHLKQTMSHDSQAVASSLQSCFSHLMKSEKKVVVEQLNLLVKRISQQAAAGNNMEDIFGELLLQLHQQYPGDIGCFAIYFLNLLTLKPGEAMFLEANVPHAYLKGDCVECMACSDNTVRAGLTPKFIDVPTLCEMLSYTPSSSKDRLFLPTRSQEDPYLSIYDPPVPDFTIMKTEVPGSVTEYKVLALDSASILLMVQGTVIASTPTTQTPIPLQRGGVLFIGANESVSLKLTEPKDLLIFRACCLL

[16] = tested on: Vero; assay: Vero cell cytotoxicity, cytotoxicity control for flavivirus capping enzyme inhibitors (AID 588742); assay type: functional; details: Chlorocebus sabaeus
[17] = biological target: Genome polyprotein (dengue virus type 2, UniProt P29990); assay: Dengue-2 NS5 methyltransferase inhibitors, primary screen, biochemical, confirmation dose response (AID 588689); assay type: functional
[18] = tested on: Streptococcus; assay: Group A Streptococcus viability loss, dose response, counter-screen for streptokinase expression inhibitor project, luminescence, BacTiterGlo (AID 1915); assay type: functional, organism-based;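 also: potency for reduction of bacterial viability or growth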
[19] = Shn3 3'UTR reporter inhibitors, dose response, cell-based, Clone20 osteoblasts, firefly luciferase, cherry-picked (AID 624132); assay type: functional;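 also: firefly luciferase luminescence from reporter carrying the Shn3 3'UTR in osteoblasts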
[20] = HepG2 cell cytotoxicity, dose response, cytotoxicity control for Shn3 inhibitor project, CellTiter-Glo, cherry-picked (AID 624134); assay type: functional, cell-based
[21] = tested on: Streptococcus sp. 'group A'; assay: growth inhibition of control SK(-) GAS strain, dose response, counter-screen for streptokinase expression inhibitor project, luminescence, kanamycin, BacTiterGlo, confirmation (AID 1900); assay type: functional, organism-based
[22] = biological target: T9, Streptokinase A (Streptococcus pyogenes serotype M1, UniProt P10520); assay: S. pyogenes streptokinase expression inhibitors, potency, dose response, plasminogen activation absorbance, OD405 (AID 1914); assay type: functional, Streptococcus pyogenes M1 GAS;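 also: secreted streptokinase activity via plasminogen activation per viability signal from cell pellet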
T9 sequence (P10520 whole entry): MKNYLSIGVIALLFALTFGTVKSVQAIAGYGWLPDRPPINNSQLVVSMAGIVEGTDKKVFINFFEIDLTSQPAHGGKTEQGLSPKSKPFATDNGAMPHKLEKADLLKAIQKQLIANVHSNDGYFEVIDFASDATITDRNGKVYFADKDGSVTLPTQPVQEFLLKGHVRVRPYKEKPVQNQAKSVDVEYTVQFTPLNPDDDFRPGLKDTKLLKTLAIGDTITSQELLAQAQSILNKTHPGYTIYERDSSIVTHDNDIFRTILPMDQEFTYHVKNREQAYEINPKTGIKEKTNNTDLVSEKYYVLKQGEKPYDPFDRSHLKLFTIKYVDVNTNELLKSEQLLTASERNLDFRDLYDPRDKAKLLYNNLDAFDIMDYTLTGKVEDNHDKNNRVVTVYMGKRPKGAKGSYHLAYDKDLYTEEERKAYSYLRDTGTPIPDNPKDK

[23] = control 3'UTR Renilla luciferase suppression, dose response, counter-screen for Shn3 inhibitor project, cell-based, Clone20-Shn3RL, cherry-picked (AID 624133); assay type: functional
[24] = biological target: T7, Fatty acid synthase; assay: FAS thioesterase domain inhibitors, dose response, biochemical, endpoint fluorescence intensity, uHTS hits (AID 624327); assay type: functional;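 also: fluorescence from hydrolysis of an O-methyl fluorescein acyl ester substrate by the enzyme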
[25] = biological target: Cytochrome P450 2C9 (Homo sapiens, UniProt P11712)
Sequence of Cytochrome P450 2C9 (P11712 whole entry): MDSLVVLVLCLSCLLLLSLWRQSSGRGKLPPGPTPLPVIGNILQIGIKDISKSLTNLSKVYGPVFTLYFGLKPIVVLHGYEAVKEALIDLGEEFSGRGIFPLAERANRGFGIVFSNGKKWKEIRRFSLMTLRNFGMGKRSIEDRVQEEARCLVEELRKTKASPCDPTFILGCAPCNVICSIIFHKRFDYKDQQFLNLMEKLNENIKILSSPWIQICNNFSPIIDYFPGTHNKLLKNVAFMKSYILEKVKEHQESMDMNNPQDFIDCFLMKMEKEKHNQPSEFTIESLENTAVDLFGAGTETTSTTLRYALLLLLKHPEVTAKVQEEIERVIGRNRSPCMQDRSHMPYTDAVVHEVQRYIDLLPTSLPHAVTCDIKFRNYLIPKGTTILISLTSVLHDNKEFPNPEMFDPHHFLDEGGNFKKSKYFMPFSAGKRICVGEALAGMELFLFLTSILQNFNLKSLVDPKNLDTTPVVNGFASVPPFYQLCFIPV

Sequence of Beta-galactosidase (Q8VNN2 whole entry): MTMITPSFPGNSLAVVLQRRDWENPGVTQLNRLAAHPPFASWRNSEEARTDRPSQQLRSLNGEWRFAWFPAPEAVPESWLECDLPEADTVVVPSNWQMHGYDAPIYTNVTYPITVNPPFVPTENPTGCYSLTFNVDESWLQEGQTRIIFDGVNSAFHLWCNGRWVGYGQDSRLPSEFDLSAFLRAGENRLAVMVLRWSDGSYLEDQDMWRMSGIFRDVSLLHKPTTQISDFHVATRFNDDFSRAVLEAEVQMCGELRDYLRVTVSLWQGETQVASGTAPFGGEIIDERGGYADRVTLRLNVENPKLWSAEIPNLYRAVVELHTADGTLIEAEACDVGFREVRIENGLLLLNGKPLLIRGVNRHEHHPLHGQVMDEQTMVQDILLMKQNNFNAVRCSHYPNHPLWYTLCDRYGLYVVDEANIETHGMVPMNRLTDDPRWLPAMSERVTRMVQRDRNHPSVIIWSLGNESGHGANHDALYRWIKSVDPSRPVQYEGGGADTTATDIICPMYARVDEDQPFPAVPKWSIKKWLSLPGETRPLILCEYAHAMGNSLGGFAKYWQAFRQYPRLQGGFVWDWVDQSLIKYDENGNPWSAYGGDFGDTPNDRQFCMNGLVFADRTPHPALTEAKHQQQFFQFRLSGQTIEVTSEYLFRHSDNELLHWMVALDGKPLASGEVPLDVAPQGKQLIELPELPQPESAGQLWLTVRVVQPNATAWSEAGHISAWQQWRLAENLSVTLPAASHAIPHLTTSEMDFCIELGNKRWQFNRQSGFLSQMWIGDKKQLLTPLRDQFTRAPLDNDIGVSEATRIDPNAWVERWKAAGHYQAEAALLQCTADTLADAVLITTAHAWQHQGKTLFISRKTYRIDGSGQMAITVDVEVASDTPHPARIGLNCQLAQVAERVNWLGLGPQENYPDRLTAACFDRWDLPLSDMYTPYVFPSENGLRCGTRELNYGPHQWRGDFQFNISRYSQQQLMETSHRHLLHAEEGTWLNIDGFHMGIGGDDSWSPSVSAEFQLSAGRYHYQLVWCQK
T7 sequence (P49327 whole entry, the tested form may be a part): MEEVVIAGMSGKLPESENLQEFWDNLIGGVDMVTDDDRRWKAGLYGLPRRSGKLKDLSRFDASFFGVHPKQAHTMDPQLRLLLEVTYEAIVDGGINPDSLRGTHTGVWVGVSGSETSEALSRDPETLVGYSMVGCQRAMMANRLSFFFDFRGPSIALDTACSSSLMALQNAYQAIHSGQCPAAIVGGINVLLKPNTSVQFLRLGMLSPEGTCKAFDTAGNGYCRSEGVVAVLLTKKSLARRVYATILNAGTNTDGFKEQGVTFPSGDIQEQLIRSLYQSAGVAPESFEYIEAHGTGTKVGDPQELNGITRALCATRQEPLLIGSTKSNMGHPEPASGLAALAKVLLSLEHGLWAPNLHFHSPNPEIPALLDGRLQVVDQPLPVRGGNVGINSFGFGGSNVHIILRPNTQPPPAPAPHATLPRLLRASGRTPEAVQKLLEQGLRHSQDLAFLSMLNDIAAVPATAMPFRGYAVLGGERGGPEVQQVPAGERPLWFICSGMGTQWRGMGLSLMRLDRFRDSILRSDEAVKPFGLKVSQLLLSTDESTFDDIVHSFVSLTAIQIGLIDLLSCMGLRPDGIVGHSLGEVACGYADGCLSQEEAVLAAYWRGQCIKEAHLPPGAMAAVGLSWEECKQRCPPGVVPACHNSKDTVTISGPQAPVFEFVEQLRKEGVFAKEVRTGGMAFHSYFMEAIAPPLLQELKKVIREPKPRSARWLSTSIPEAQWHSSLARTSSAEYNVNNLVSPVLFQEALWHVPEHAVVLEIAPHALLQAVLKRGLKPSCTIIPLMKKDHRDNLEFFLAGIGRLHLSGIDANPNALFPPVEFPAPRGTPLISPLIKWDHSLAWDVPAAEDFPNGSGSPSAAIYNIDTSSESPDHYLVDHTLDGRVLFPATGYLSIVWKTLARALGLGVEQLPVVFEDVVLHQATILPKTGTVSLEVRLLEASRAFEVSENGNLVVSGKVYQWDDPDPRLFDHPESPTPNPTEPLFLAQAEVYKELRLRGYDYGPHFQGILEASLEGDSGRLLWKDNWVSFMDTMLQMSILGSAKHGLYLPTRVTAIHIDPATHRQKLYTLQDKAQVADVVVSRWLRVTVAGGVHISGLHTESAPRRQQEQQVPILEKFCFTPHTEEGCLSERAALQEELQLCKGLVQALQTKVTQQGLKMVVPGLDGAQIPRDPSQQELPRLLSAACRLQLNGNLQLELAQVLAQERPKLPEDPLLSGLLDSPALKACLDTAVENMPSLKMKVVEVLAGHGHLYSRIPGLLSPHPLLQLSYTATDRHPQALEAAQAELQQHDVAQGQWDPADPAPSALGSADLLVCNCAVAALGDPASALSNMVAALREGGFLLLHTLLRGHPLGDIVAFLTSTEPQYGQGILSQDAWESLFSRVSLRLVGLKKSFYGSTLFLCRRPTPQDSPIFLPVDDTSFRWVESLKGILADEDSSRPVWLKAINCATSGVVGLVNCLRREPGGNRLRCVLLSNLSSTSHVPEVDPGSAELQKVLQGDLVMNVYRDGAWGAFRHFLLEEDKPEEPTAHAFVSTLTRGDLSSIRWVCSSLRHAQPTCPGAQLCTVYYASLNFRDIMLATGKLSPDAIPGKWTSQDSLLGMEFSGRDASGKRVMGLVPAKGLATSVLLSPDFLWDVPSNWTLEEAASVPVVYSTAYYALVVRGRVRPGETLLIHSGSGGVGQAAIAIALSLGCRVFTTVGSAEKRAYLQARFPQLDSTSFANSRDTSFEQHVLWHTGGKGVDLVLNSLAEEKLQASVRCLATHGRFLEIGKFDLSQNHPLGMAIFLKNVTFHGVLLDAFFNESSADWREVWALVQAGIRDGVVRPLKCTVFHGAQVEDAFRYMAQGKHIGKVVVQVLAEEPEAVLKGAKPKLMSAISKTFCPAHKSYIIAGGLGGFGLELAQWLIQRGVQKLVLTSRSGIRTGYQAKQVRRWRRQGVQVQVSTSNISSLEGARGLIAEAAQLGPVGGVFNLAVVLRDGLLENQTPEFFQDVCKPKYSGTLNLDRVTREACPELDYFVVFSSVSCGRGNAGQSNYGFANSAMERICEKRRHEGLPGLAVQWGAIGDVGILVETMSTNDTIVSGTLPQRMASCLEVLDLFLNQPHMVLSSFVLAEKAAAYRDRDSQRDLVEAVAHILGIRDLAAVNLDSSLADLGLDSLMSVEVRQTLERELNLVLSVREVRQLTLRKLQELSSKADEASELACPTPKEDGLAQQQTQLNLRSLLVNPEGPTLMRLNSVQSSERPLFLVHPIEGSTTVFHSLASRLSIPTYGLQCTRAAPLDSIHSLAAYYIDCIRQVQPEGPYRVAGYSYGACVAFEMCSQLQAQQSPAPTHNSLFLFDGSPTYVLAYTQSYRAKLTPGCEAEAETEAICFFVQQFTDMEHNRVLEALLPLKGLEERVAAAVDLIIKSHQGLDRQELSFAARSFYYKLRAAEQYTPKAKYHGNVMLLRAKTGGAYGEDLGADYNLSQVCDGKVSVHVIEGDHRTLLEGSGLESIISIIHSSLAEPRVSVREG
Sequence of Glucose-6-phosphate 1-dehydrogenase (P11413 whole entry): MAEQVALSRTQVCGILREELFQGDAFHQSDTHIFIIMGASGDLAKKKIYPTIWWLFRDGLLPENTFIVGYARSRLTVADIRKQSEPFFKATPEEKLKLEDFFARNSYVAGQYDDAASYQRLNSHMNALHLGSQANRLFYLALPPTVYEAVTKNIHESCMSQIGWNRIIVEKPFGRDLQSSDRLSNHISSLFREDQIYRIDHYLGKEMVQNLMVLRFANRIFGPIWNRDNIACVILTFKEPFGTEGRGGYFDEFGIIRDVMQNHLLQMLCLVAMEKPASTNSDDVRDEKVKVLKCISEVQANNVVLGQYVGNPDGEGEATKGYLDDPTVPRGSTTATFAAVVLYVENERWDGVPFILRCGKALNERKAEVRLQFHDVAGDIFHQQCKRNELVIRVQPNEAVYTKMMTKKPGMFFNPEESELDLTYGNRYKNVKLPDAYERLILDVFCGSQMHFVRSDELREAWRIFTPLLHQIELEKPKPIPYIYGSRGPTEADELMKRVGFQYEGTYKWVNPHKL

With `Nc1nccc(-c2cc(-c3ccc(Cl)cc3Cl)no2)n1` the AC50 [1] was > 52 µM (inactive), the AC50 [2] was 8.96 µM (active) and the AC50 [3] was 8.35 µM (active). The IC50 [4] was > 67.6 µM (inactive) and the IC50 [5] was > 67.6 µM (inactive).

For `NC(=O)c1c(NC(=O)c2ccccc2)sc2c1CCN(Cc1ccccc1)C2`, the EC50 [6] was > 99 µM (inactive), the EC50 [7] was > 300 µM (inconclusive) and the EC50 [8] was 12.6 µM (active). For the same compound, the EC50 [9] was > 99 µM (inactive) and the EC50 [10] was > 300 µM (not active).

For `COc1ccc(OC)c(C(C)NC(=O)c2ccc(Br)cc2)c1` (centres undefined), the IC50 [4] was > 67.6 µM (inactive) and the IC50 [5] was > 67.6 µM (inactive).

For `Cn1c(N)c(C(=O)COC(=O)CSc2ccccc2)c(=O)n(C)c1=O`, the IC50 [4] was > 67.6 µM (inactive) and the IC50 [5] was > 67.6 µM (inactive).

In the case of `COC(=O)CSc1[nH]c2ccc(Br)cc2c1[N+](=O)[O-]`, the EC50 [11] is reported as > 40 µM (inactive) and the IC50 [12] is reported as > 40 µM (not active).

With `O=[N+]([O-])c1c(NCCCO)cc(Sc2nc3ccccc3s2)c2nonc12` the IC50 [13] was 1.95 µM (active), the IC50 [14] was > 80 µM (inactive) and the IC50 [15] was > 50 µM (not active). The EC50 [6] was > 99 µM (inactive), the CC50 [16] was 26.2 µM (active) and the IC50 [17] was 23 µM (active). For the same compound, the EC50 [18] was 3.07 µM (active), the AC50 [19] was 1.58 µM (active) and the AC50 [20] was 26.2 µM (active). For the same compound, the EC50 [11] was > 40 µM (inactive), the EC50 [21] was 2.2 µM (active) and the EC50 [22] was 5.49 µM (active). For the same compound, the EC50 [9] was 44.1 µM (inactive), the AC50 [23] was 8.01 µM (active) and the IC50 [24] was 2.37 µM (active). For the same compound, the IC50 [12] was 2.05 µM (active).

For `Oc1[nH]c2ccccc2c1N=Nc1cccc(Cl)c1`, the EC50 [6] was > 99 µM (inactive), the EC50 [7] was 45.4 µM (active) and the EC50 [9] was > 99 µM (inactive). The EC50 [10] was 125 µM (active).

For `O=C(COC(=O)c1cccnc1)c1ccc(Cl)c(Cl)c1`, the EC50 [11] was > 40 µM (inactive), the AC50 [25] was 7.94 µM (inconclusive) and the IC50 [12] was 36.8 µM (not active).
